Laboratory results as given in ChEMBL document CHEMBL3137667, “[Drug-induced liver injury; fourteenth updated edition of the bibliographic database of liver injuries and related drugs]” (Gastroenterol Clin Biol, 2004).

Legend:
[1] = Highest frequency of moderate liver toxicity observed during clinical trials, expressed as a percentage. [column '% BIOL' in source]; conditions: human
[2] = Highest frequency of acute liver toxicity observed during clinical trials, expressed as a percentage. [column '% AIGUE' in source]; conditions: human
[3] = Presence of at least one case with successful reintroduction. [column 'REINT' in source]; conditions: human
[4] = Times to onset, minimal and maximal, observed in the indexed observations. [column 'DELAI' in source]; conditions: human
[5] = human, serum
[6] = human
[7] = human; remark: listed apart in the source
[8] = human; remark: listed apart in the source
[9] = human, serum, 4383 h
[10] = human; remark: listed apart in the source
[11] = human; remark: listed apart in the source
[12] = human; remark: listed apart in the source
[13] = human; remark: listed apart in the source
[14] = human; remark: listed apart in the source
[15] = human; remark: listed apart in the source
[16] = human, serum; remark: listed apart in the source
[17] = Comments (NB not yet translated). [column 'COMMENTAIRES' in source]; conditions: human
[18] = Proposed mechanism(s) of liver damage. [column 'MEC' in source]; conditions: human
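Wherever Hepatotoxicity (association with vascular disease) is given: count of indexed literature references reporting vascular liver injury in humans, e.g. peliosis hepatitis, hepatic veno-occlusive disease or Budd-Chiari syndrome.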
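Wherever Hepatotoxicity (benign tumour) is given: value is a count of indexed literature references citing a benign tumour confirmed by histopathology.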
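Wherever Hepatotoxicity (choleostasis) is given: human cholestatic liver injury, shown by histopathology or by peak ALT or AST elevation over alkaline phosphatase ratio below 2, value counts indexed literature reports.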
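Wherever Hepatotoxicity (chronic liver disease) is given: chronic liver injury confirmed by histopathology or persistently raised serum aminotransferase activity beyond 6 months, value given as the count of indexed literature references.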
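Wherever Hepatotoxicity (cirrhosis) is given: value is a count of indexed literature references reporting cirrhosis confirmed by histopathology.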
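Wherever Hepatotoxicity (cytolytic) is given: human cytolytic liver injury, shown by histopathology or by a ratio above 5 of peak ALT or AST elevation to alkaline phosphatase elevation, value counts indexed references.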
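Wherever Hepatotoxicity (granulomatous hepatitis) is given: value is a count of indexed literature references reporting granulomatous liver disease confirmed by histopathology.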
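Wherever Hepatotoxicity (malignant tumour) is given: malignant tumour confirmed by histopathology, value gives the count of indexed literature references reporting it.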
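Wherever Hepatotoxicity (severe hepatitis) is given: human clinical data: severe hepatitis, meaning potentially life-threatening liver failure or clinically observed cases, the value counts how many indexed literature references report it.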
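Wherever Hepatotoxicity (steatosis) is given: steatosis confirmed by histopathology, value is the count of indexed references.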

Compound	Hepatotoxicity (successful reintroduction) [3]	Hepatotoxicity (time to onset) [4]	Hepatotoxicity (moderate) [5]	Hepatotoxicity (cytolytic) [6]	Hepatotoxicity (choleostasis) [7]	Hepatotoxicity (chronic liver disease) [9]	Hepatotoxicity (cirrhosis) [10]	Hepatotoxicity (granulomatous hepatitis) [11]	Hepatotoxicity (association with vascular disease) [12]	Hepatotoxicity (steatosis) [13]	Hepatotoxicity (malignant tumour) [14]	Hepatotoxicity (benign tumour) [15]	Hepatotoxicity (moderate) [1]	Hepatotoxicity (acute) [2]	Hepatotoxicity (acute) [16]	Hepatotoxicity (severe hepatitis) [8]	Hepatotoxicity (comment) [17]	also measured
COc1c2occc2cc2ccc(=O)oc12 [METHOXSALEN]	yes	2 hours - 5 months	1	3	0	0	0	0	0	0	0	0	–	–	–	–	–	Hepatotoxicity (moderate) ([1]; Liver): 0%; Hepatotoxicity (acute) ([2]; Liver): 0%; Hepatotoxicity (severe hepatitis) ([8]; Liver): 1
CC(C(=O)Nc1cc(-c2ccccc2)nn1-c1ccccc1)N(C)C (stereo not given) [DIFENAMIZOLE]	yes	–	0	1	0	0	0	0	0	0	0	0	0%	0%	1	1	–	–
O=C1CN2Cc3c(ccc(Cl)c3Cl)N=C2N1 [ANAGRELIDE]	yes	–	1	0	1	0	0	0	0	0	0	0	0.2%	0%	1	0	–	–
CCc1c2c(nc3ccc(OC(=O)N4CCC(N5CCCCC5)CC4)cc13)-c1cc3c(c(=O)n1C2)COC(=O)[C@]3(O)CC [IRINOTECAN]	yes	–	12	1	2	0	0	0	0	0	0	0	–	–	3	–	–	Hepatotoxicity (moderate) ([1]; Liver): 13.3%; Hepatotoxicity (acute) ([2]; Liver): 4.2%; Hepatotoxicity (severe hepatitis) ([8]; Liver): 0
COc1cc(Cc2cnc(N)nc2N)cc(OC)c1OC [TRIMETHOPRIM]	yes	5 days - 24 days	1	–	–	0	0	–	0	0	0	0	–	–	–	–	–	Hepatotoxicity (moderate) ([1]; Liver): 5.9%; Hepatotoxicity (acute) ([2]; Liver): 0%; Hepatotoxicity (cytolytic) ([6]; Liver): 2; Hepatotoxicity (choleostasis) ([7]; Liver): 5; Hepatotoxicity (severe hepatitis) ([8]; Liver): 1; Hepatotoxicity (granulomatous hepatitis) ([11]; Liver): 0
O=[N+]([O-])O[C@H]1CO[C@H]2[C@@H]1OC[C@H]2O[N+](=O)[O-] [ISOSORBIDE DINITRATE]	yes	–	1	0	0	0	0	0	0	0	0	0	0%	0%	1	0	–	–
COc1cc(C(=S)N2CCOCC2)cc(OC)c1OC [TRITIOZINE]	yes	–	1	0	0	0	0	0	0	0	0	0	3%	0%	2	0	–	–
CN1CCN(C(c2ccccc2)c2ccccc2)CC1 [CYCLIZINE]	yes	–	0	0	0	0	0	0	0	0	0	0	0%	0%	1	0	–	–
CN1CCC(=C2c3ccccc3C=Cc3ccccc32)CC1 [CYPROHEPTADINE]	–	1 week - 1 month	0	3	3	0	0	0	0	0	0	0	0%	0%	5	0	CHOLESTASE_PROLONGEE CHOLANGITE	Hepatotoxicity (mechanism) [18]: Allergic
COCCCC/C(=N\OCCN)c1ccc(C(F)(F)F)cc1 [FLUVOXAMINE]	–	4 days - 4 months	5	1	2	0	0	0	0	0	0	0	0%	0%	3	0	SURDOSAGE	Hepatotoxicity (mechanism) [18]: Dose-dependant
CNC1=Nc2ccc(Cl)cc2C(c2ccccc2)=[N+]([O-])C1 [CHLORDIAZEPOXIDE]	yes	2 days - 3 years	3	1	3	0	0	0	0	0	0	0	11%	0%	–	0	–	–
CCc1cc2c(s1)N(C)C(=O)CN=C2c1ccccc1Cl [CLOTIAZEPAM]	–	7 months	0	2	0	0	0	0	0	0	0	0	0%	0%	2	0	AC_ANTI-N	Hepatotoxicity (mechanism) [18]: Allergic
COc1cc([C@@H]2c3cc4c(cc3[C@@H](O[C@@H]3O[C@@H]5CO[C@@H](C)O[C@H]5[C@H](O)[C@H]3O)[C@H]3COC(=O)[C@H]23)OCO4)cc(OC)c1O [ETOPOSIDE]	–	1 week - 5 weeks	24	–	–	0	0	–	10	0	0	0	–	–	4	–	MVO	Hepatotoxicity (moderate) ([1]; Liver): 50%; Hepatotoxicity (acute) ([2]; Liver): 1%; Hepatotoxicity (mechanism) ([18]; Liver): Dose-dependant; Hepatotoxicity (cytolytic) ([6]; Liver): 2; Hepatotoxicity (choleostasis) ([7]; Liver): 2; Hepatotoxicity (severe hepatitis) ([8]; Liver): 5; Hepatotoxicity (granulomatous hepatitis) ([11]; Liver): 0
CC1=C(/C=C/C(C)=C/C=C/C(C)=C/C(=O)O)C(C)(C)CCC1 [TRETINOIN]	–	10 days - 38 days	26	3	4	0	0	0	0	0	0	0	85%	16.7%	10	2	CHOLANGITE	Hepatotoxicity (mechanism) [18]: Dose-dependant
